One test concerns PC3 cells. Put plainly: NAMPT Cell Proliferation Assay (Cell Titer Glo). Type of test: cell-based. As to conditions: Homo sapiens, PC-3, 120 h, incubated 5 days, cell viability. The essentials: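 Viability measured by Cell Titer Glo luminescence after 5-day exposure of attached PC3 cells to compound, dosed as 10-fold serial dilutions ([…]) in RPMI/10% FBS at 37 °C and 5% CO2. Percent inhibition fitted to sigmoidal dose-response curves for IC50.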

Test [1] concerns the target T1, NAMPT (Homo sapiens, UniProt P43490). Briefly: Time-Resolved Fluorescence Resonance Energy Transfer (TR-FRET) Binding Assay of NAMPT. As to conditions: 6.8 nM NAMPT, 200 nM probe, equilibrated 3 hours, no substrates. The essentials: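 IC50s come from four-parameter logistic fits of control-normalized Em520/Em495 TR-FRET ratios (Ex 337 nm) against compound concentration. Before reading, enzyme, probe, antibody and compound equilibrated for 3 h at room temperature.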

In test [2] the target is T1, NAMPT. Briefly: TR-FRET Binding Assay of NAMPT with PRPP. As to conditions: 2 nM NAMPT, 2 nM probe, 200 µM PRPP and 2.5 mM ATP, equilibrated 16 hours. The procedure, abridged:
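Substrates present: PRPP at 200 µM and ATP at 2.5 mM, final, alongside 2 nM enzyme, 2 nM tracer and 1 nM terbium anti-His donor in 2% DMSO. A 16-hour equilibration preceded the time-resolved FRET read, allowing compounds to be enzymatically modified.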
Background: Time-resolved FRET reads energy transfer from a long-lived donor to a nearby acceptor.

As a reminder, the IC50 is the concentration that inhibits the measured activity by half. Lower therefore signals higher potency.

T1 sequence (P43490 whole entry): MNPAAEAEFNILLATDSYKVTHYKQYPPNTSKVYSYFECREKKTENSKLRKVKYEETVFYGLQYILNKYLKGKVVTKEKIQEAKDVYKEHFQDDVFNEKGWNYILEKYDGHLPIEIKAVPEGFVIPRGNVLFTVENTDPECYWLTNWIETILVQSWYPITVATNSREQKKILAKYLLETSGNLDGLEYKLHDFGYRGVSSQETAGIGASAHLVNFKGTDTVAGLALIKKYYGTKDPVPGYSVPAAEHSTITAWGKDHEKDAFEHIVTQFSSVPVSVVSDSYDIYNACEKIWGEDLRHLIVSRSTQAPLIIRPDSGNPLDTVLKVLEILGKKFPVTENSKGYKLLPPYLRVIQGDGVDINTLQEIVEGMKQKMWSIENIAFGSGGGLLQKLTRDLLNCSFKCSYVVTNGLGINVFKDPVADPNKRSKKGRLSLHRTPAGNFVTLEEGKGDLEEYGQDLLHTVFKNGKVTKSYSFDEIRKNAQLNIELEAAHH

Consider `CCCC(=O)N1CCC(c2ccc(NC(=O)N3CC(c4cccnc4)C3)cc2)CC1` [Example 172, N-[4-(1-butanoylpiperidin-4-yl)phenyl]-3-(pyridin-3-yl)azetidine-1-carboxamide], for which the 50% inhibitory concentration (IC50) with PC3 cells was found to be 34.5 nM; at NAMPT [1], 5.65 nM; at NAMPT [2] it was 0.206 nM.
Regarding `Cc1ccsc1C(=O)N1CCC(c2ccc(NC(=O)N3CC(c4cccnc4)C3)cc2)C1` (stereo not drawn) [Example 270, N-(4-{1-[(3-methylthiophen-2-yl)carbonyl]pyrrolidin-3-yl}phenyl)-3-(pyridin-3-yl)azetidine-1-carboxamide], the IC50 in the test with PC3 cells was 19.5 nM; on NAMPT [1], 8.17 nM; on NAMPT [2] it was 0.196 nM.
With `CC(C)(C)C(=O)N1CC(Oc2ccc(NC(=O)N3CC(c4cccnc4)C3)cc2)C1` [Example 128, N-(4-{[1-(2,2-dimethylpropanoyl)azetidin-3-yl]oxy}phenyl)-3-(pyridin-3-yl)azetidine-1-carboxamide], the IC50 was 8.36 nM with PC3 cells, 30.4 nM on NAMPT [1] and 0.519 nM at NAMPT [2].
For `COC(=O)c1ccc(NC(=O)N2CC(c3cccnc3)C2)cc1` [Example 13, methyl 4-({[3-(pyridin-3-yl)azetidin-1-yl]carbonyl}amino)benzoate], the IC50 is 514 nM in the test with PC3 cells, 201 nM at NAMPT [1] and 0.374 nM at NAMPT [2].
As to `CN1CCN(CC(=O)N2CC(Oc3ccc(NC(=O)N4CC(c5cccnc5)C4)cc3)C2)CC1` [Example 149, N-[4-({1-[(4-methylpiperazin-1-yl)acetyl]azetidin-3-yl}oxy)phenyl]-3-(pyridin-3-yl)azetidine-1-carboxamide], the IC50 was 76.5 nM in the test with PC3 cells, 22.1 nM at NAMPT [1] and 0.219 nM at NAMPT [2].
For `CC1(C(=O)N2CCC(c3ccc(NC(=O)N4CC(c5cccnc5)C4)cc3)CC2)CC1` [Example 193, N-(4-{1-[(1-methylcyclopropyl)carbonyl]piperidin-4-yl}phenyl)-3-(pyridin-3-yl)azetidine-1-carboxamide], in that order: 13.7 nM, 14.4 nM and 0.243 nM.
For `CSCC(=O)N1CC=C(c2ccc(NC(=O)N3CC(c4cccnc4)C3)cc2)CC1` [Example 21, N-(4-{1-[(methylsulfanyl)acetyl]-1,2,3,6-tetrahydropyridin-4-yl}phenyl)-3-(pyridin-3-yl)azetidine-1-carboxamide], the IC50 with PC3 cells was 33.7 nM; on NAMPT [1], 32.5 nM; on NAMPT [2], 0.381 nM.
With `O=C(CCN1CCCC1)N1CCC(Oc2ccc(NC(=O)N3CC(c4cccnc4)C3)cc2)CC1` [Example 39, 3-(pyridin-3-yl)-N-[4-({1-[3-(pyrrolidin-1-yl)propanoyl]piperidin-4-yl}oxy)phenyl]azetidine-1-carboxamide], the results for the IC50 in the test on PC3 cells, on NAMPT [1] and at NAMPT [2] were 115 nM, 90.5 nM and 0.338 nM, respectively.
For `COCC(=O)N1CC=C(c2ccc(NC(=O)N3CC(c4cccnc4)C3)cc2)CC1` [Example 20, N-{4-[1-(methoxyacetyl)-1,2,3,6-tetrahydropyridin-4-yl]phenyl}-3-(pyridin-3-yl)azetidine-1-carboxamide], in that order: 123 nM, 68.4 nM and 0.5 nM.
Regarding `O=C(Nc1ccc(C2CCN(C(=O)c3ccccc3)C2)cc1)N1CC(c2cccnc2)C1` (stereo not drawn) [Example 71, N-[4-(1-benzoylpyrrolidin-3-yl)phenyl]-3-(pyridin-3-yl)azetidine-1-carboxamide], the IC50 worked out at 10.7 nM in the test on PC3 cells, 20.1 nM at NAMPT [1] and 0.184 nM on NAMPT [2].
For `CCC(=O)N1CC[C@@H](Oc2ccc(NC(=O)N3CC(c4cccnc4)C3)cc2)C1` [Example 319, N-(4-{[(3R)-1-propanoylpyrrolidin-3-yl]oxy}phenyl)-3-(pyridin-3-yl)azetidine-1-carboxamide], the 50% inhibitory concentration (IC50) with PC3 cells came out at 30.7 nM; on NAMPT [1], 70.6 nM; on NAMPT [2] it was 0.426 nM.
For the molecule `O=C(Nc1ccc(O[C@@H]2CCN(C(=O)[C@@H]3CCCO3)C2)cc1)N1CC(c2cccnc2)C1` [Example 78, 3-(pyridin-3-yl)-N-[4-({(3R)-1-[(2S)-tetrahydrofuran-2-ylcarbonyl]pyrrolidin-3-yl}oxy)phenyl]azetidine-1-carboxamide], the IC50 in the test with PC3 cells was determined as 56 nM; on NAMPT [1], 137 nM; on NAMPT [2], 0.226 nM.
Regarding `O=C(CC(F)(F)F)N1CCC(c2ccc(NC(=O)N3CC(c4cccnc4)C3)cc2)C1` (stereo not drawn) [Example 72, 3-(pyridin-3-yl)-N-{4-[1-(3,3,3-trifluoropropanoyl)pyrrolidin-3-yl]phenyl}azetidine-1-carboxamide], the IC50 amounted to 77.7 nM in the test with PC3 cells, 65.6 nM on NAMPT [1] and 0.211 nM at NAMPT [2].
Consider `O=C(Nc1ccc(OC2CN(C(=O)c3cncs3)C2)cc1)N1CC(c2cccnc2)C1` [Example 144, 3-(pyridin-3-yl)-N-(4-{[1-(1,3-thiazol-5-ylcarbonyl)azetidin-3-yl]oxy}phenyl)azetidine-1-carboxamide], for which the IC50 with PC3 cells worked out at 9.04 nM; on NAMPT [1] it was 25.6 nM; on NAMPT [2], 0.313 nM.
For the molecule `CCOCC(=O)N1CCC(c2ccc(NC(=O)N3CC(c4cccnc4)C3)cc2)CC1` [Example 173, N-{4-[1-(ethoxyacetyl)piperidin-4-yl]phenyl}-3-(pyridin-3-yl)azetidine-1-carboxamide], the IC50 with PC3 cells was found to be 56.4 nM; at NAMPT [1], 90.4 nM; on NAMPT [2] it was 0.393 nM.
For `CC(=O)N1CCC(C(=O)N2CCC(Oc3ccc(NC(=O)N4CC(c5cccnc5)C4)cc3)CC2)CC1` [Example 34, N-[4-({1-[(1-acetylpiperidin-4-yl)carbonyl]piperidin-4-yl}oxy)phenyl]-3-(pyridin-3-yl)azetidine-1-carboxamide], the values for the IC50 with PC3 cells, on NAMPT [1] and on NAMPT [2] were 62.4 nM, 50.7 nM and 0.264 nM, respectively.
For `O=C(CN1CCOCC1)N1CC(Oc2ccc(NC(=O)N3CC(c4cccnc4)C3)cc2)C1` [Example 143, N-(4-{[1-(morpholin-4-ylacetyl)azetidin-3-yl]oxy}phenyl)-3-(pyridin-3-yl)azetidine-1-carboxamide], in that order: 82.2 nM, 136 nM and 0.763 nM.
Take `CC(C)(O)C(=O)N1CC[C@H](Oc2ccc(NC(=O)N3CC(c4cccnc4)C3)cc2)C1` [Example 94, N-(4-{[(3S)-1-(2-hydroxy-2-methylpropanoyl)pyrrolidin-3-yl]oxy}phenyl)-3-(pyridin-3-yl)azetidine-1-carboxamide]: the IC50 in the test on PC3 cells came out at 598 nM; at NAMPT [1], 488 nM; on NAMPT [2], 0.213 nM.
For `O=C(CCC(F)(F)F)N1CCC(c2ccc(NC(=O)N3CC(c4cccnc4)C3)cc2)CC1` [Example 179, 3-(pyridin-3-yl)-N-{4-[1-(4,4,4-trifluorobutanoyl)piperidin-4-yl]phenyl}azetidine-1-carboxamide], in that order: 76.9 nM, 32.5 nM and 0.249 nM.
For `CCC(C)(C)C(=O)N1CC(Oc2ccc(NC(=O)N3CC(c4cccnc4)C3)cc2)C1` [Example 131, N-(4-{[1-(2,2-dimethylbutanoyl)azetidin-3-yl]oxy}phenyl)-3-(pyridin-3-yl)azetidine-1-carboxamide], the concentration for half-maximal inhibition (IC50) in the test with PC3 cells was found to be 8.18 nM; on NAMPT [1] it was 7.72 nM; at NAMPT [2], 0.491 nM.
For `O=C(Nc1ccc(C2CN(C(=O)c3ccco3)C2)cc1)N1CC(c2cccnc2)C1` [Example 224, N-{4-[1-(furan-2-ylcarbonyl)azetidin-3-yl]phenyl}-3-(pyridin-3-yl)azetidine-1-carboxamide], in that order: 20.7 nM, 26 nM and 0.333 nM.
Take `O=C(Nc1ccc(O[C@@H]2CCN(C(=O)C3CCCCC3)C2)cc1)N1CC(c2cccnc2)C1` [Example 332, N-(4-{[(3R)-1-(cyclohexylcarbonyl)pyrrolidin-3-yl]oxy}phenyl)-3-(pyridin-3-yl)azetidine-1-carboxamide]: the IC50 stood at 22.2 nM in the test with PC3 cells, 61.7 nM on NAMPT [1] and 0.474 nM at NAMPT [2].
In the case of `O=C(CC1CC1)N1CC(c2ccc(NC(=O)N3CC(c4cccnc4)C3)cc2)C1` [Example 105, N-{4-[1-(cyclopropylacetyl)azetidin-3-yl]phenyl}-3-(pyridin-3-yl)azetidine-1-carboxamide], the IC50 with PC3 cells came to 60.9 nM; at NAMPT [1], 68.3 nM; at NAMPT [2], 0.208 nM.
Consider `CCOCC(=O)N1CCC(c2ccc(NC(=O)N3CC(c4cccnc4)C3)cc2)C1` (stereo not drawn) [Example 288, N-{4-[1-(ethoxyacetyl)pyrrolidin-3-yl]phenyl}-3-(pyridin-3-yl)azetidine-1-carboxamide], for which the IC50 in the test with PC3 cells worked out at 84 nM; on NAMPT [1], 117 nM; on NAMPT [2], 0.227 nM.
Take `CC1CC1C(=O)N1CCC(Oc2ccc(NC(=O)N3CC(c4cccnc4)C3)cc2)CC1` (stereo not drawn) [Example 35, N-[4-({1-[(2-methylcyclopropyl)carbonyl]piperidin-4-yl}oxy)phenyl]-3-(pyridin-3-yl)azetidine-1-carboxamide]: the values for the IC50 with PC3 cells, on NAMPT [1] and at NAMPT [2] were 90.2 nM, 89.2 nM and 0.492 nM, respectively.
For `O=C(CC1CCCCC1)N1CC(c2ccc(NC(=O)N3CC(c4cccnc4)C3)cc2)C1` [Example 212, N-{4-[1-(cyclohexylacetyl)azetidin-3-yl]phenyl}-3-(pyridin-3-yl)azetidine-1-carboxamide], in that order: 20.6 nM, 40.9 nM and 0.464 nM.

These data come from patent US9296723B2, “NAMPT inhibitors” (AbbVie Inc., priority 2012, dated 2016).
